Among the test systems are A498 renal; HCT-116 colon; HOP-92 NSCLC; M14 melanoma; MDA-MB-435; OVCAR-8 ovarian; SK-MEL-5 melanoma; SNB-75 CNS; SW-620 colon; UACC-257 melanoma.
Common to all, as to experiment: NCI-60 cell line screen, 48 h

Structures are written as SMILES.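 Values below derive from 48-hour exposures of cells grown in 96-well plates, with endpoints linearly interpolated between the two concentrations bracketing the appropriate inhibition level. GI50 marks 50% less growth. TGI is the concentration that stops growth completely.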

For `Cc1ccc(C(=O)Nc2ccc(CN3CCN(C)CC3)c(C(F)(F)F)c2)cc1C#Cc1cncc2ncccc12`, the GI50 with A498 renal was 0.209 µM; with HCT-116 colon it was 0.274 µM; in the assay on HOP-92 NSCLC, 0.147 µM; in the assay on M14 melanoma it was 0.0877 µM; in the assay with MDA-MB-435, 0.286 µM; with OVCAR-8 ovarian it was 0.446 µM. The GI50 in the assay with SK-MEL-5 melanoma is 2.63 µM; in the assay with SNB-75 CNS, 0.264 µM; in the assay on SW-620 colon, 0.443 µM; in the assay on UACC-257 melanoma, 0.402 µM. Further, the TGI in the assay on A498 renal stood at 0.656 µM; with HCT-116 colon, 3.87 µM; in the assay on HOP-92 NSCLC it was 1.28 µM; in the assay with M14 melanoma, 0.9 µM; in the assay on MDA-MB-435, 1.56 µM; with OVCAR-8 ovarian, 4.96 µM. The TGI is 8.14 µM in the assay on SK-MEL-5 melanoma, 1.39 µM in the assay on SNB-75 CNS, 1.76 µM in the assay with SW-620 colon and 4.42 µM in the assay on UACC-257 melanoma.

Turning to `COc1cc2c(cc1OCCCCCCNC(=O)c1cc3ccccc3[nH]1)N=CC1CCCN1C2=O` (stereo not given), the GI50 with A498 renal is 26.3 µM; with HCT-116 colon, 45.6 µM; in the assay on HOP-92 NSCLC, 25.3 µM; with M14 melanoma, 65.5 µM; in the assay with MDA-MB-435, 39.3 µM; with OVCAR-8 ovarian, 30.5 µM. For the same compound, the GI50 was 14.2 µM with SK-MEL-5 melanoma, 64.2 µM in the assay on SNB-75 CNS, 38.6 µM in the assay with SW-620 colon and 14.4 µM with UACC-257 melanoma. Moreover, the TGI with A498 renal was 64.2 µM; with HCT-116 colon, > 100 µM; with HOP-92 NSCLC it was > 100 µM; in the assay with M14 melanoma, > 100 µM; in the assay on MDA-MB-435, > 100 µM; in the assay on OVCAR-8 ovarian, > 100 µM. Further, the TGI in the assay with SK-MEL-5 melanoma was 32 µM; with SNB-75 CNS, > 100 µM; in the assay on SW-620 colon, > 100 µM; in the assay with UACC-257 melanoma, 51.2 µM.

Regarding `Cc1c(N2C(=O)/C(=C\c3ccc(O)cc3)N=C2c2ccccc2)c(=O)n(-c2ccccc2)n1C`, the GI50 with A498 renal, with HCT-116 colon, in the assay on HOP-92 NSCLC, in the assay with M14 melanoma, in the assay with MDA-MB-435 and with OVCAR-8 ovarian was > 100 µM each time. Further, the GI50 in the assay with SK-MEL-5 melanoma, with SNB-75 CNS, in the assay with SW-620 colon and with UACC-257 melanoma was > 100 µM each time. Further, the TGI in the assay with A498 renal, with HCT-116 colon, in the assay with HOP-92 NSCLC, in the assay on M14 melanoma, in the assay with MDA-MB-435 and with OVCAR-8 ovarian was > 100 µM each time. Further, the TGI in the assay on SK-MEL-5 melanoma, in the assay with SNB-75 CNS, in the assay with SW-620 colon and in the assay with UACC-257 melanoma was > 100 µM throughout.

In the case of `C/C1=C\CC[C@@](C)(O)[C@H]2C[C@H](CC/C(C)=C/CC1)C1(CC1)C(=O)O2`, the GI50 in the assay on A498 renal is 20.1 µM; with HCT-116 colon it was 18.1 µM; in the assay with HOP-92 NSCLC, 16 µM; in the assay on M14 melanoma it was 31.4 µM; in the assay with MDA-MB-435, 25.4 µM; in the assay with OVCAR-8 ovarian, 20 µM. In addition, the GI50 was 18.6 µM in the assay on SK-MEL-5 melanoma, 44.2 µM with SNB-75 CNS, 21.8 µM with SW-620 colon and 19.4 µM in the assay on UACC-257 melanoma. In addition, the TGI in the assay on A498 renal was 66.2 µM; in the assay with HCT-116 colon, 32.2 µM; with HOP-92 NSCLC, 33.3 µM; in the assay on M14 melanoma, > 100 µM; in the assay with MDA-MB-435 it was 79.1 µM; with OVCAR-8 ovarian, 40.8 µM. In addition, the TGI in the assay with SK-MEL-5 melanoma is 35.1 µM; with SNB-75 CNS it was > 100 µM; in the assay on SW-620 colon it was 46.2 µM; with UACC-257 melanoma, 67.2 µM.

Take `Cc1cc(-c2ccccc2)c(C)n1Cc1ccc(Cl)cc1`: the GI50 with A498 renal is 2.21 µM; with HCT-116 colon, 3.8 µM; in the assay on HOP-92 NSCLC it was 1.51 µM; in the assay with M14 melanoma, 3.21 µM; in the assay on MDA-MB-435, 0.368 µM; in the assay with OVCAR-8 ovarian, 5.95 µM. In addition, the GI50 in the assay with SK-MEL-5 melanoma was 4.23 µM; in the assay with SNB-75 CNS, 3.17 µM; with SW-620 colon it was 3.06 µM; in the assay on UACC-257 melanoma it was 5.39 µM. Also, the TGI in the assay with A498 renal was 47.9 µM; with HCT-116 colon it was 23.4 µM; in the assay on HOP-92 NSCLC it was 9.28 µM; in the assay on M14 melanoma, 31.6 µM; in the assay on MDA-MB-435, 2.55 µM; with OVCAR-8 ovarian, > 100 µM. In addition, the TGI in the assay with SK-MEL-5 melanoma was 66.8 µM; in the assay on SNB-75 CNS, > 100 µM; in the assay with SW-620 colon it was > 100 µM; with UACC-257 melanoma, 78.6 µM.

For the compound `Cn1c2ccccc2c2cc(-c3ccccc3)c3c(c21)C(=O)C=CC3=O`, the TGI in the assay with A498 renal is 48.7 µM; with HCT-116 colon, 41.4 µM; in the assay with HOP-92 NSCLC it was 29.9 µM; in the assay on M14 melanoma, 47.9 µM; with MDA-MB-435, 51.7 µM; with OVCAR-8 ovarian, 78.3 µM. Further, the TGI in the assay with SK-MEL-5 melanoma is > 62.7 µM; with SNB-75 CNS, 67.1 µM; with SW-620 colon it was 33.4 µM; with UACC-257 melanoma it was 50.9 µM.

As to `c1ccc(-c2n(Cc3ccc4ccccc4n3)c3ccccc3[n+]2Cc2ccc3ccccc3n2)cc1`, the GI50 in the assay on A498 renal was 0.147 µM; in the assay with HCT-116 colon it was 0.247 µM; in the assay with HOP-92 NSCLC, 0.143 µM; in the assay on M14 melanoma it was 0.289 µM; in the assay on MDA-MB-435 it was 0.337 µM; with OVCAR-8 ovarian it was 0.341 µM. In addition, the GI50 in the assay with SK-MEL-5 melanoma was 0.219 µM; in the assay on SNB-75 CNS, 0.229 µM; in the assay on SW-620 colon, 0.359 µM; in the assay on UACC-257 melanoma, 0.252 µM. Also, the TGI was determined as 1.02 µM in the assay with A498 renal; 1.19 µM with HCT-116 colon; 0.563 µM with HOP-92 NSCLC; 1.43 µM in the assay with M14 melanoma; 1.22 µM in the assay with MDA-MB-435; 1.46 µM with OVCAR-8 ovarian. Moreover, the TGI in the assay with SK-MEL-5 melanoma was 0.502 µM; in the assay on SNB-75 CNS, 0.937 µM; in the assay on SW-620 colon, 1.69 µM; with UACC-257 melanoma it was 0.933 µM.

Consider `CCOC(=O)Nc1nc2c(F)c(F)c(F)cc2s1`, for which the GI50 in the assay with A498 renal is 31.8 µM; in the assay with HCT-116 colon, 58.6 µM; with HOP-92 NSCLC, 15.4 µM; with M14 melanoma, > 100 µM; with MDA-MB-435, > 100 µM; with OVCAR-8 ovarian, 48.1 µM. Moreover, the GI50 is > 100 µM in the assay with SK-MEL-5 melanoma, 23.4 µM in the assay with SNB-75 CNS, > 100 µM in the assay with SW-620 colon and > 100 µM in the assay with UACC-257 melanoma. For the same compound, the TGI with A498 renal was > 100 µM; in the assay with HCT-116 colon it was > 100 µM; in the assay on HOP-92 NSCLC, 97.5 µM; with M14 melanoma it was > 100 µM; in the assay with MDA-MB-435, > 100 µM; in the assay with OVCAR-8 ovarian, > 100 µM. The TGI with SK-MEL-5 melanoma is > 100 µM; with SNB-75 CNS it was 94.4 µM; with SW-620 colon it was > 100 µM; in the assay with UACC-257 melanoma, > 100 µM.

Values taken from PubChem BioAssay (NCI).
